Each structure is given as a SMILES string.

The target of the first test is T1, Human CaV2.2 channels (Homo sapiens, UniProt Q00975).
T1 construct: expressed in transfected cells
T1 sequence (P54289 947-1103): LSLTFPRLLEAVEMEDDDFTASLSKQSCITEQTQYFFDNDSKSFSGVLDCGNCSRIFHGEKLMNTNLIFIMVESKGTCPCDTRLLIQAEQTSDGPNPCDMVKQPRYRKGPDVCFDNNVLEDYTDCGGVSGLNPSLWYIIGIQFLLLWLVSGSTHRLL
T1 sequence (P54289 25-946): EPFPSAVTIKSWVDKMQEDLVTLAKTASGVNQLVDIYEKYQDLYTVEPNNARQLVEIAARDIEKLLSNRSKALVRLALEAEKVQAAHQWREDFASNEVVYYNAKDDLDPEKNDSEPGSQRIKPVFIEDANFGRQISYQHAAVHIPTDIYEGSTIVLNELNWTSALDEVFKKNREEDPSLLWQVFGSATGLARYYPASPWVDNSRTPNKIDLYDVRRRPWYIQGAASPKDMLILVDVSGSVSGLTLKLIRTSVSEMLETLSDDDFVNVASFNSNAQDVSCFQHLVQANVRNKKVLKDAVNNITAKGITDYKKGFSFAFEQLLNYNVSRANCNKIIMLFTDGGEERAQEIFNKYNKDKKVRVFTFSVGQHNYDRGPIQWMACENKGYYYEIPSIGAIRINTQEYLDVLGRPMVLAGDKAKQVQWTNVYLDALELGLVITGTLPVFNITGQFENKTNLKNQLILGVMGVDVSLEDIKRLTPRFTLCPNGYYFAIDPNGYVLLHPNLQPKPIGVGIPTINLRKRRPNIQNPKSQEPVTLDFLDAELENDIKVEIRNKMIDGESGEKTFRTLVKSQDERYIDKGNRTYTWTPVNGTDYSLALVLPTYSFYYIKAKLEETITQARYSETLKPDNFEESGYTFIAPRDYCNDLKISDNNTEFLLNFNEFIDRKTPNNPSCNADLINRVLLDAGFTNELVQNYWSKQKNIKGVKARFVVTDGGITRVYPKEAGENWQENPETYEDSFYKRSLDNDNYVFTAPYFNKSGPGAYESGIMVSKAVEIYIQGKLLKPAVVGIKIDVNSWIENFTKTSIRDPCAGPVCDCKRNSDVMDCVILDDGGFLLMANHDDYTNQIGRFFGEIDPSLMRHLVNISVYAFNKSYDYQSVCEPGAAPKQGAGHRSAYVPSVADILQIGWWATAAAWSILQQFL
T1 sequence (P54284 whole entry, further chain): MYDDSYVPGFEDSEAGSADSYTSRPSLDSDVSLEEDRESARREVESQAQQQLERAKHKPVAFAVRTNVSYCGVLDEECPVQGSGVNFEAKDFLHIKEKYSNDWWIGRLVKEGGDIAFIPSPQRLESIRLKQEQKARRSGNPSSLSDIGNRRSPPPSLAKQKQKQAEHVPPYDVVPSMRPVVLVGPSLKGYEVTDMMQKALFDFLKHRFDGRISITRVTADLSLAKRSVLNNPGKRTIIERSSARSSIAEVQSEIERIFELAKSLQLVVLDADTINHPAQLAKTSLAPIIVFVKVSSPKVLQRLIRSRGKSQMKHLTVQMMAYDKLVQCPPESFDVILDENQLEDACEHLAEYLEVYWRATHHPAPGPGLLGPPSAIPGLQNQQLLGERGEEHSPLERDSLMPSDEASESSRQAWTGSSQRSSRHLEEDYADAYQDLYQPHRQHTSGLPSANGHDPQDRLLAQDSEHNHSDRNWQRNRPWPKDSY
T1 sequence (Q00975 whole entry): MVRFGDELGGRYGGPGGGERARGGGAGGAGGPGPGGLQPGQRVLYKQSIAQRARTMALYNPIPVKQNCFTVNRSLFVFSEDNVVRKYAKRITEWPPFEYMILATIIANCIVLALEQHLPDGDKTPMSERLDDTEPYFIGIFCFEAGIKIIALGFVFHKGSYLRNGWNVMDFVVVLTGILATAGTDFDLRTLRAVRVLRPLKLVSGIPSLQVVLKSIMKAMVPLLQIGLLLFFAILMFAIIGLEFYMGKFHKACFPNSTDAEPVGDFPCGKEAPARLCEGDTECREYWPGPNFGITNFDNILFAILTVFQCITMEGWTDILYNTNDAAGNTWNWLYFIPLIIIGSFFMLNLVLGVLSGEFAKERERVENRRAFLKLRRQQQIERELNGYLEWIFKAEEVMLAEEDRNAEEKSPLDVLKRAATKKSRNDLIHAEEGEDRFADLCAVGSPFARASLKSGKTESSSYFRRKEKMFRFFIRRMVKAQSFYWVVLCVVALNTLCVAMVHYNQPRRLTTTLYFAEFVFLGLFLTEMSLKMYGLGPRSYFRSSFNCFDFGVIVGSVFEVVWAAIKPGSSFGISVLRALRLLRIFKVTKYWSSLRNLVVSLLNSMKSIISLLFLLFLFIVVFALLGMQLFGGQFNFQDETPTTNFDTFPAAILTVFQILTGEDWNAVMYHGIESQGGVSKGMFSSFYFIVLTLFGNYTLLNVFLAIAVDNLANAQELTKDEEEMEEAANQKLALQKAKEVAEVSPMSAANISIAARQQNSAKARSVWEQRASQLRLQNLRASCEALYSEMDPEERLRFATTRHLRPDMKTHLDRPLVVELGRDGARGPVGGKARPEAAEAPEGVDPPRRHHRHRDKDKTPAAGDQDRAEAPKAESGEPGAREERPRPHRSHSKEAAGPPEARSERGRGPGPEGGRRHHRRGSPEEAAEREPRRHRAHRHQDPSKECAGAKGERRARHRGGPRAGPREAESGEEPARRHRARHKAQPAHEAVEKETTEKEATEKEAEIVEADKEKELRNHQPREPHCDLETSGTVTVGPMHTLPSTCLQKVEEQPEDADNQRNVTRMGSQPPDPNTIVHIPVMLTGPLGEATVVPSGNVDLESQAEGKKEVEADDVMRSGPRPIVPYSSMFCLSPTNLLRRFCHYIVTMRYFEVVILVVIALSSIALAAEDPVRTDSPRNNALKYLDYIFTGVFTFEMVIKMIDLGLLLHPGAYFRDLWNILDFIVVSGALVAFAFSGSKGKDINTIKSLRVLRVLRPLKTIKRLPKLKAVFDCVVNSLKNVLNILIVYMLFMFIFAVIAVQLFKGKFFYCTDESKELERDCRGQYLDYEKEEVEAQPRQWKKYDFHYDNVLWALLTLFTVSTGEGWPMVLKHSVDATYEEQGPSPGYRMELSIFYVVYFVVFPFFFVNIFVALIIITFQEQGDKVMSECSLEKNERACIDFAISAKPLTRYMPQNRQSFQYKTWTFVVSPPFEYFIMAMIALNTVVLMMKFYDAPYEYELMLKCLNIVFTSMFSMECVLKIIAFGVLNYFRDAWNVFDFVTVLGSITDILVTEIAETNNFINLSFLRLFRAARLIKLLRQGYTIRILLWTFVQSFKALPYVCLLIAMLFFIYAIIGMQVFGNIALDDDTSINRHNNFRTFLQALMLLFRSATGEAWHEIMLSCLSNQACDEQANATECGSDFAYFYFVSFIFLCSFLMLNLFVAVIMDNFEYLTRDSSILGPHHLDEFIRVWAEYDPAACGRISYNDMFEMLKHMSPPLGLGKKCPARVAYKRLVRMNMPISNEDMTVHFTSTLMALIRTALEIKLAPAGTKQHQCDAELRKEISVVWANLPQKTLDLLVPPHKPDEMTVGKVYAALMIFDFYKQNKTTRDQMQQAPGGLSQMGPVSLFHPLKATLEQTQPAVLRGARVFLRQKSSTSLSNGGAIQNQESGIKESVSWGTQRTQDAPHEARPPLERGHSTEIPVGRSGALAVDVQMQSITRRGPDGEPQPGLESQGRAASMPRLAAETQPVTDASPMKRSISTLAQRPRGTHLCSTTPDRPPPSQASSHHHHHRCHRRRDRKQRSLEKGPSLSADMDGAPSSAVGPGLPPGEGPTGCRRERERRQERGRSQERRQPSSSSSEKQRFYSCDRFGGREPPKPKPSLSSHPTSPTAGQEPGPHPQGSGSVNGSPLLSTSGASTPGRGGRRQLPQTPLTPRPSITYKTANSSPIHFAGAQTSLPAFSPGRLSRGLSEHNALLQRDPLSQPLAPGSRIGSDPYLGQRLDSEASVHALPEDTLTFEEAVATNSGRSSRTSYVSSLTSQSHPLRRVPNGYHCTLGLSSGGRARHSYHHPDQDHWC
Put plainly: Fluorescence assay for CaV2.2 channels using potassium depolarization to induce channel opening (FLIPR, Fluo 4). It is filed as cell-based. The note with it: 3 μM test compound; alternative assay buffer 30 mM KCl (inactivated channel state); HEK293 cells stably expressing human CaV2.2. From the text: In the process, the Ca^2+ influx is quantified in the FLIPR assay with the aid of a Ca^2+-sensitive dye (type Fluo-4, Molecular Probes Europe BV, Leiden, the Netherlands) in a fluorescent imaging plate reader (FLIPR 3, Molecular Devices, Sunnyvale, USA), as described hereinafter.
2.1 Fluorescence Assay for CaV2.2 Channels Using Potassium Depolarization to Induce Channel Opening
Human CaV2.2 channels were stably expressed in HEK293 cells together with alpha2-delta and beta subunits of voltage gated calcium channels. In addition, an inwardly rectifying potassium channel (Kir2.3) was stably expressed in these cells to augment control of the cell membrane potential by the concentration of extracellular potassium ions. Raise of the extracellular potassium concentration leads to depolarization of the membrane potential and thus regulates the voltage dependent state of CaV2.2 channels. For preparation, cells were seeded in black poly-D-lysine coated 96-well plates (Becton Dickinson, Biocoat 4640) in 100 μL medium [500 mL DMEM/F-12 plus Glutamax (Invitrogen 31331-093) plus 5.5 mL MEM NEAA 100× (Invitrogen 11140-035) plus 50 mL FBS decomplemented (Invitrogen 10270-106) plus 200 μg/mL Geneticin (Invitrogen 10131-027) plus 50 μg/mL Hygromycin B (Invitrogen 10687-010) plus 2 μg/mL Blasticidin (anti-bl5b Invivo-Gen) plus 0.2 μg/mL Puromycin (A 11138-03)] at a cell density of 30.000 cells per well. Plates were incubated at 37° C. (5% CO2) for 20 to 23 h. On the day of experiment medium was discarded and cells were loaded with Fluo 4 by addition of 100 μL of basic assay buffer (10 mM HEPES, 1 mM KCl, 149 mM NaCl, 0.8 mM CaCl2, 1.7 mM MgCl2, 10 mM Glucose, 0.1% BSA. pH 7.4) containing 2 μM Fluo 4 (Molecular Probes; F-14201), 0.01% pluronic acid (Molecular Probes; P-6866) and 2.5 mM probenecid (Molecular Probes; P36400). Cells were incubated in the dark at 25° C. for 60 min. Then dye containing buffer was discarded and 100 μL basic (1 mM KCl) or alternative (30 mM KCl) assay buffer was added. The alternative assay buffer contained altered concentrations of KCl (30 mM) and NaCl (120 mM) and was used in order to promote the inactivated channel state. After that 25 μL of basic or alternative assay buffer with or without test compound were added and cells were incubated again in the dark at 25° C. for 15 min. Fluorescence intensity was measured on a FLIPR 3 instrument (Molecular Devices Corp., Sunnyvale, Calif.) with excitation at 480 nm and emission at 535 nm. After continuously reading fluorescence for 30 sec, 50 μL of basic assay buffer containing 210 mM KCl (NaCl omitted) were added for depolarization. Peak fluorescent signal intensity was determined and the amplitude of the peak signal, normalized to base line, was used to measure channel inhibition by test compounds.
Take `CC1(S(=O)(=O)c2cccc(C(F)(F)F)c2)CCOC(COc2cnc(C3CC3)cn2)C1` (single isomer, unassigned) [SC-133, 2-Cyclopropyl-5-[[4-methyl-4-[[3-(trifluoromethyl)phenyl]sulfonyl]-tetrahydro-pyran-2-yl]-methoxy]-pyrazine]: the “Activity Category: %-Inhib (CaV2.2) @3 μM @30 mM KCl” value (“Activity Category: %-Inhib” for short) is on record as “A (%-Inhibition >95%)”.

As to `CC1(S(=O)(=O)c2cccc(C(F)(F)F)c2)CCOC(c2cncc(S(C)(=O)=O)c2)C1` (stereo not drawn) [SC-100, 3-Methylsulfonyl-5-[4-methyl-4-[[3-(trifluoromethyl)phenyl]sulfonyl]-tetrahydro-pyran-2-yl]-pyridine], the “Activity Category: %-Inhib” value is “C (%-Inhibition >40% up to ≤75%)”.

`CC1(S(=O)(=O)c2cccc(C(F)(F)F)c2)CCOC(c2cncc(S(C)(=O)=O)c2)C1` (stereo not drawn) [SC-101, 3-Methylsulfonyl-5-[4-methyl-4-[[3-(trifluoromethyl)phenyl]sulfonyl]-tetrahydro-pyran-2-yl]-pyridine]: the “Activity Category: %-Inhib” value is “B (%-Inhibition >75% up to ≤95%)”.

In the case of `CCC1(S(=O)(=O)c2cccc(C(F)(F)F)c2)CCOC(c2ccc(C(F)(F)F)cn2)C1` (stereo not drawn) [SC-107, 2-[4-Ethyl-4-[[3-(trifluoromethyl)phenyl]sulfonyl]-tetrahydro-pyran-2-yl]-5-(trifluoromethyl)-pyridine], the “Activity Category: %-Inhib” value is recorded as “A (%-Inhibition >95%)”.

Regarding `CCC1(S(=O)(=O)c2cccc(C(F)(F)F)c2)CCOC(c2ccc(C(F)(F)F)cn2)C1` (stereo not drawn) [SC-108, 2-[4-Ethyl-4-[[3-(trifluoromethyl)phenyl]sulfonyl]-tetrahydro-pyran-2-yl]-5-(trifluoromethyl)-pyridine], the “Activity Category: %-Inhib” value is recorded as “A (%-Inhibition >95%)”.

As to `CCC1(S(=O)(=O)c2cccc(C(F)(F)F)c2)CCOC(c2ccc(C(F)(F)F)cn2)C1` (stereo not drawn) [SC-109, 2-[4-Ethyl-4-[[3-(trifluoromethyl)phenyl]sulfonyl]-tetrahydro-pyran-2-yl]-5-(trifluoromethyl)-pyridine], the “Activity Category: %-Inhib” value is recorded as “B (%-Inhibition >75% up to ≤95%)”. Regarding `CC1(S(=O)(=O)c2cccc(C(F)(F)F)c2)CCOC(c2cnc(C3CC3)nc2)C1` (stereo not drawn) [SC-204, 2-Cyclopropyl-5-[4-methyl-4-[[3-(trifluoromethyl)phenyl]sulfonyl]-tetrahydro-pyran-2-yl]-pyrimidine], the “Activity Category: %-Inhib” value is “B (%-Inhibition >75% up to ≤95%)”.

Take `CC1(S(=O)(=O)c2cccc(C(F)(F)F)c2)CCOC(COc2ccc(C(F)(F)F)nc2)C1` (stereo not drawn) [SC-209, 5-[[4-Methyl-4-[[3-(trifluoromethyl)phenyl]sulfonyl]-tetrahydro-pyran-2-yl]-methoxy]-2-(trifluoromethyl)-pyridine]: the “Activity Category: %-Inhib” value was “A (%-Inhibition >95%)”. As to `CC1(S(=O)(=O)c2cc(F)cc(C(F)(F)F)c2)CCOC(c2ncc(S(C)(=O)=O)cc2Cl)C1` (stereo not drawn) [SC-214, 3-Chloro-2-[4-[[3-fluoro-5-(trifluoromethyl)-phenyl]sulfonyl]-4-methyl-tetrahydro-pyran-2-yl]-5-methylsulfonyl-pyridine], the “Activity Category: %-Inhib” value is “C (%-Inhibition >40% up to ≤75%)”. For the compound `CC1(S(=O)(=O)c2cc(F)cc(C(F)(F)F)c2)CCOC(c2ncc(S(C)(=O)=O)cc2Cl)C1` (stereo not drawn) [SC-215, 3-Chloro-2-[4-[[3-fluoro-5-(trifluoromethyl)-phenyl]sulfonyl]-4-methyl-tetrahydro-pyran-2-yl]-5-methylsulfonyl-pyridine], the “Activity Category: %-Inhib” value is given as “B (%-Inhibition >75% up to ≤95%)”.

The test is the same for the next values; noted with them: HEK293, 3 μM test compound; alternative assay buffer 30 mM KCl (inactivated channel state); HEK293 cells stably expressing human CaV2.2; read-out: Activity Category: %-Inhib (CaV2.2) @3 μM @30 mM KCl.
For `CC1(S(=O)(=O)c2cccc(C(F)(F)F)c2)CCOC(COc2cnc(C3CC3)cn2)C1` (single isomer, unassigned) [SC-132, 2-Cyclopropyl-5-[[4-methyl-4-[[3-(trifluoromethyl)phenyl]sulfonyl]-tetrahydro-pyran-2-yl]-methoxy]-pyrazine], the inhibition at 3 µM lay within 75 to 95%. On the same count and under the same terms, with `CC1(S(=O)(=O)c2cccc(C(F)(F)F)c2)CCOC(c2ccc(C3CC3)cn2)C1` (stereo not drawn) [SC-103, 5-Cyclopropyl-2-[4-methyl-4-[[3-(trifluoromethyl)phenyl]sulfonyl]-tetrahydro-pyran-2-yl]-pyridine] the figure was above 95%; with `CC1(S(=O)(=O)c2cccc(C(F)(F)F)c2)CCOC(c2ccc(S(C)(=O)=O)cn2)C1` (stereo not drawn) [SC-104, 5-Methylsulfonyl-2-[4-methyl-4-[[3-(trifluoromethyl)phenyl]sulfonyl]-tetrahydro-pyran-2-yl]-pyridine], 75 to 95%. As for `CCC1(S(=O)(=O)c2cccc(C(F)(F)F)c2)CCOC(c2ccc(C(F)(F)F)cn2)C1` (stereo not drawn) [SC-106, 2-[4-Ethyl-4-[[3-(trifluoromethyl)phenyl]sulfonyl]-tetrahydro-pyran-2-yl]-5-(trifluoromethyl)-pyridine], the inhibition at 3 µM was above 95%.

`Cc1ccc(OCC2CC(C)(S(=O)(=O)c3cccc(C(F)(F)F)c3)CCO2)cn1` (stereo not drawn) [SC-114, 2-Methyl-5-[[4-methyl-4-[[3-(trifluoromethyl)phenyl]sulfonyl]-tetrahydro-pyran-2-yl]-methoxy]-pyridine]: the inhibition at 3 µM lay within 75 to 95%.

For the compound `CC1(S(=O)(=O)c2cccc(C(F)(F)F)c2)CCOC(c2nnc(C3CC3)o2)C1` (stereo not drawn) [SC-127, 2-Cyclopropyl-5-[4-methyl-4-[[3-(trifluoromethyl)phenyl]sulfonyl]-tetrahydro-pyran-2-yl]-[1,3,4]oxadiazole], the inhibition at 3 µM was in the range of 40 to 75%. On to `CC1(S(=O)(=O)c2cccc(C(F)(F)F)c2)CCOC(c2nc(C3CC3)co2)C1` (stereo not drawn) [SC-158, 4-Cyclopropyl-2-[4-methyl-4-[[3-(trifluoromethyl)phenyl]sulfonyl]-tetrahydro-pyran-2-yl]-oxazole], for which the inhibition at 3 µM is above 95%. Take `CCC1(S(=O)(=O)c2cccc(C(F)(F)F)c2)CCOC(c2nc(C(F)(F)F)no2)C1` (stereo not drawn) [SC-200, 5-[4-Ethyl-4-[[3-(trifluoromethyl)phenyl]sulfonyl]-tetrahydro-pyran-2-yl]-3-(trifluoromethyl)-[1,2,4]oxadiazole]: the inhibition at 3 µM lay within 75 to 95%. Same read-out and setting: to `CCC1(S(=O)(=O)c2cccc(C(F)(F)F)c2)CCOC(c2nc(C3CC3)no2)C1` (stereo not drawn) [SC-202, 3-Cyclopropyl-5-[4-ethyl-4-[[3-(trifluoromethyl)phenyl]sulfonyl]-tetrahydro-pyran-2-yl]-[1,2,4]oxadiazole] belongs 75 to 95%; to `CC1(S(=O)(=O)c2cccc(C(F)(F)F)c2)CCOC(c2cnc(C3CC3)nc2)C1` (stereo not drawn) [SC-205, 2-Cyclopropyl-5-[4-methyl-4-[[3-(trifluoromethyl)phenyl]sulfonyl]-tetrahydro-pyran-2-yl]-pyrimidine], above 95%. Consider `CCC1(S(=O)(=O)c2cccc(C(F)(F)F)c2)CCOC(c2nnc(C3CC3)o2)C1` (stereo not drawn) [SC-206, 2-Cyclopropyl-5-[4-ethyl-4-[[3-(trifluoromethyl)phenyl]sulfonyl]-tetrahydro-pyran-2-yl]-[1,3,4]oxadiazole], for which the inhibition at 3 µM was 40 to 75%.

In the case of `CC1(S(=O)(=O)c2cccc(C(F)(F)F)c2)CCOC(COc2ccc(C(F)(F)F)nc2)C1` (stereo not drawn) [SC-208, 5-[[4-Methyl-4-[[3-(trifluoromethyl)phenyl]sulfonyl]-tetrahydro-pyran-2-yl]-methoxy]-2-(trifluoromethyl)-pyridine], the inhibition at 3 µM was 75 to 95%. Still for that read-out and setting: to `CC1(S(=O)(=O)c2cccc(S(C)(=O)=O)c2)CCOC(c2ncc(C(F)(F)F)cc2S(C)(=O)=O)C1` (stereo not drawn) [SC-210, 2-[4-Methyl-4-[(3-methylsulfonyl-phenyl)sulfonyl]-tetrahydro-pyran-2-yl]-3-methylsulfonyl-5-(trifluoromethyl)-pyridine] belongs above 95%.

Regarding `CC1(S(=O)(=O)c2cccc(C(F)F)c2)CCOC(c2ncc(C(F)(F)F)cc2S(C)(=O)=O)C1` (stereo not drawn) [SC-212, 2-[4-[[3-(Difluoro-methyl)-phenyl]sulfonyl]-4-methyl-tetrahydro-pyran-2-yl]-3-methylsulfonyl-5-(trifluoromethyl)-pyridine], the inhibition at 3 µM is 75 to 95%.
